Common to all, as to assay: combination Emax (second highest fraction inhibited in the dose matrix, 72 h); higher = more inhibition; extreme values may be limits of the assay
The test system of test [1] is A549 (Lung Adenocarcinoma). The gist of the method:
(§1)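 After 24 hours at 37°C and 5% CO2 in 1536-well plates, cells in DMEM/F12 or RPMI plus 10% FBS received two-drug dose matrices for 72 hours. Viability came from CellTiter-Glo 2.0 luminescence and was scaled as inhibition, anchored at 0 by vehicle wells and at 1 by blank wells. Combination Emax is taken as the second-highest inhibition in the matrix, and Bliss excess as the observed combination effect less EA + EB − EA·EB, with EA and EB the single-agent effects.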

The subject of another test is ARH-77 (Non-Cancerous). The gist of the method:
as §1

The test system of test [2] is CAPAN-2 (Pancreatic Carcinoma). In a few lines:
as §1

Test [3] concerns CCK-81 (Colorectal Carcinoma). The gist of the method: as §1
The subject of test [4] is COLO-824 (Breast Carcinoma). The gist of the method: as §1
Test [5] relates to ECC10 (Gastric Carcinoma). The gist of the method: as §1
For another test, the system named is FU97 (Gastric Carcinoma). The gist of the method: as §1
In the next test the test system is GI-ME-N (Neuroblastoma). The gist of the method:
as §1

The next test deals with Hs-445 (Non-Cancerous). In a few lines: as §1
The subject of the next test is LN-405 (Glioblastoma). The gist of the method: as §1
Test [6] concerns NCI-H1693 (Lung Adenocarcinoma). The gist of the method:
as §1

The subject of test [7] is NCI-H2141 (Small Cell Lung Carcinoma). The gist of the method: as §1
Test [8] relates to NCI-H64 (Small Cell Lung Carcinoma). The gist of the method:
as §1

The subject of a further test is NY (Osteosarcoma). The gist of the method:
as §1

Test [9] relates to OS-RC-2 (Kidney Carcinoma). In a few lines:
as §1

The test system of test [10] is PANC-10-05 (Pancreatic Carcinoma). The gist of the method:
as §1

Test [11] deals with SK-MES-1 (Squamous Cell Lung Carcinoma). The gist of the method:
as §1

The test system of test [12] is SK-MG-1 (Low Grade Glioma). The gist of the method:
as §1

The subject of the next test is U-2-OS (Osteosarcoma). In a few lines:
as §1

The subject of test [13] is VCaP (Prostate Carcinoma). In a few lines: as §1

Take `COc1cc2c(cc1OCCCCCOc1cc3c(cc1OC)C(=O)N1C=C(C)C[C@H]1C=N3)N=C[C@@H]1CC(C)=CN1C2=O` [SG3199] + O=C(c1cc(Cc2n[nH]c(=O)c3ccccc23)ccc1F)N1CCN(C(=O)C2CC2)CC1 [Olaparib] (first compound max 0.001 µM, 7x7, partner max 10 µM): the “combination Emax” value in test [1] worked out at 0.234; with ARH-77 (Non-Cancerous) it was 0.221; in test [2] it was 0.0949; in test [3], 0.184; in test [4] it was 0.147; in test [5] it was 0.102. For the same molecule, the “combination Emax” value in the test with FU97 (Gastric Carcinoma) turned out to be 0.156; in the test with GI-ME-N (Neuroblastoma) it was 0.161; in the test with Hs-445 (Non-Cancerous), 0.086; in the test with LN-405 (Glioblastoma) it was 0.301; in test [6] it was 0.086; in [7] it was 0.197. Further, the “combination Emax” value in test [8] came out at 0.0693; with NY (Osteosarcoma), 0.0994; in test [9], 0.0448; in test [10], 0.116; in test [11], 0.103; in [12], 0.168. Moreover, the “combination Emax” value in the test with U-2-OS (Osteosarcoma) is 0.0914; in test [13], 0.0785.
Regarding `CCc1c2c(nc3ccc(O)cc13)-c1cc3c(c(=O)n1C2)COC(=O)[C@]3(O)CC` [SN-38] + CN(C)CCCOc1ccc(-c2ccc3ncc4c(c3c2)n(C2CCOCC2)c(=O)n4C)cn1 [AZD0156] (first compound max 0.3 µM, 7x7, partner max 1 µM), the “combination Emax” value came out at 0.755 in [1]; 0.992 in the test with ARH-77 (Non-Cancerous); 0.206 in [2]; 0.673 in [3]; 0.509 in test [4]; 0.945 in test [5]. For the same molecule, the “combination Emax” value in the test on FU97 (Gastric Carcinoma) turned out to be 0.187; in the test with GI-ME-N (Neuroblastoma), 0.345; in the test on Hs-445 (Non-Cancerous), 0.993; in the test with LN-405 (Glioblastoma), 0.259; in test [6], 0.474; in test [7], 0.451. Further, the “combination Emax” value in test [8] came to 0.407; with NY (Osteosarcoma), 0.855; in test [9] it was 0.443; in test [10], 0.73; in [11], 0.804; in [12], 0.833. Further, the “combination Emax” value is 0.0889 in the test on U-2-OS (Osteosarcoma) and 0.391 in [13].
As to `C[C@@H](c1ccc2nccn2c1)n1nnc2ncc(-c3cnn(C)c3)nc21` [Savolitinib] + CC1(C)CCC(CN2CCN(c3ccc(C(=O)NS(=O)(=O)c4ccc(NCC5CCOCC5)c([N+](=O)[O-])c4)c(Oc4cnc5[nH]ccc5c4)c3)CC2)=C(c2ccc(Cl)cc2)C1 [Venetoclax] (first compound max 1 µM, 7x7, partner max 1 µM), the “combination Emax” value turned out to be 0.142 in test [1]; 0.251 in the test on ARH-77 (Non-Cancerous); 0.0542 in test [2]; 0.1 in [3]; 0.61 in test [4]; 0.5 in [5]. The “combination Emax” value is 0.13 in the test with FU97 (Gastric Carcinoma); 0.17 in the test with GI-ME-N (Neuroblastoma); 0.292 in the test on Hs-445 (Non-Cancerous); 0.173 in the test on LN-405 (Glioblastoma); 0.0814 in test [6]; 0.198 in [7]. Also, the “combination Emax” value in [8] is 0.23; in the test with NY (Osteosarcoma), 0.246; in test [9], 0.145; in test [10], 0.117; in test [11], 0.0772; in test [12], 0.11. The “combination Emax” value in the test with U-2-OS (Osteosarcoma) worked out at 0.125; in [13] it was 0.115.
For `C[C@@H](c1ccc2nccn2c1)n1nnc2ncc(-c3cnn(C)c3)nc21` [Savolitinib] + Cc1c2c(nn1C)CSCc1cc(n(C)n1)CSc1cc(c3ccccc3c1)OCCCc1c(C(=O)O)n(C)c3c-2c(Cl)ccc13 [AZD5991] (first compound max 1 µM, 7x7, partner max 1 µM), the “combination Emax” value in [1] was 0.22; in the test with ARH-77 (Non-Cancerous), 0.245; in test [2], 0.166; in test [3], 0.678; in [4] it was 0.356; in [5] it was 0.503. Besides, the “combination Emax” value in the test with FU97 (Gastric Carcinoma) was 0.164; in the test on GI-ME-N (Neuroblastoma) it was 0.245; with Hs-445 (Non-Cancerous), 0.211; in the test on LN-405 (Glioblastoma), 0.256; in test [6], 0.108; in test [7], 0.234. The “combination Emax” value in test [8] came out at 0.0956; in the test with NY (Osteosarcoma) it was 0.442; in [9], 0.19; in test [10] it was 0.153; in test [11] it was 0.228; in test [12], 0.124. Besides, the results for the “combination Emax” value (with U-2-OS (Osteosarcoma); in [13]) were 0.18 and 0.946, respectively.
`Cn1cnc2c(F)c(Nc3ccc(Br)cc3Cl)c(C(=O)NOCCO)cc21` [Selumetinib] + C=CCn1c(=O)c2cnc(Nc3ccc(N4CCN(C)CC4)cc3)nc2n1-c1cccc(C(C)(C)O)n1 [AZD1775] (first compound max 10 µM, partner max 1 µM): the “combination Emax” value in [1] is 0.779; in the test on ARH-77 (Non-Cancerous) it was 0.979; in test [2] it was 0.419; in [3], 0.885; in test [4], 0.76; in test [5] it was 0.774. In addition, the “combination Emax” value turned out to be 0.364 in the test with FU97 (Gastric Carcinoma); 0.209 with GI-ME-N (Neuroblastoma); 0.689 in the test on Hs-445 (Non-Cancerous); 0.148 with LN-405 (Glioblastoma); 0.428 in test [6]; 0.547 in test [7]. Also, the “combination Emax” value in test [8] was determined as 0.858; in the test on NY (Osteosarcoma), 0.527; in test [9] it was 0.244; in [10], 0.546; in [11], 0.631; in test [12], 0.449. In addition, the “combination Emax” value was 0.699 in the test on U-2-OS (Osteosarcoma) and 0.509 in test [13].
Take `Cn1cnc2c(F)c(Nc3ccc(Br)cc3Cl)c(C(=O)NOCCO)cc21` [Selumetinib] + CC(C)n1c(=O)n(C)c2cnc3cc(F)c(-c4ccc(OCCCN5CCCCC5)nc4)cc3c21 [AZD1390] (first compound max 10 µM, 7x7, partner max 0.3 µM): the “combination Emax” value was found to be 0.761 in test [1]; 0.318 in the test with ARH-77 (Non-Cancerous); 0.378 in [2]; 0.379 in [3]; 0.302 in [4]; 0.202 in [5]. In addition, the “combination Emax” value in the test with FU97 (Gastric Carcinoma) was 0.273; in the test with GI-ME-N (Neuroblastoma) it was 0.178; in the test with Hs-445 (Non-Cancerous), 0.288; in the test with LN-405 (Glioblastoma), 0.129; in test [6] it was 0.204; in [7], 0.0858. Also, the “combination Emax” value in test [8] turned out to be 0.105; in the test with NY (Osteosarcoma), 0.181; in [9] it was 0.158; in test [10], 0.402; in [11], 0.464; in test [12], 0.185. The “combination Emax” value with U-2-OS (Osteosarcoma) was 0.577; in test [13], 0.0626.
Regarding `Cn1cnc2c(F)c(Nc3ccc(Br)cc3Cl)c(C(=O)NOCCO)cc21` [Selumetinib] + CCN(CCO)CCCOc1ccc2c(Nc3cc(CC(=O)Nc4cccc(F)c4)[nH]n3)ncnc2c1 [AZD2811] (first compound max 10 µM, 7x7, partner max 1 µM), the “combination Emax” value in test [1] was found to be 0.807; with ARH-77 (Non-Cancerous), 0.369; in test [2], 0.407; in [3], 0.372; in [4], 0.825; in [5], 0.841. The “combination Emax” value turned out to be 0.305 in the test on FU97 (Gastric Carcinoma); 0.213 in the test with GI-ME-N (Neuroblastoma); 0.414 in the test with Hs-445 (Non-Cancerous); 0.242 in the test with LN-405 (Glioblastoma); 0.286 in [6]; 0.167 in [7]. The “combination Emax” value in test [8] was found to be 0.516; in the test with NY (Osteosarcoma) it was 0.247; in test [9], 0.225; in test [10] it was 0.464; in test [11] it was 0.511; in [12] it was 0.288. For the same molecule, the “combination Emax” value was 0.661 in the test on U-2-OS (Osteosarcoma) and 0.211 in [13].

These data come from the supplement of paper PMC11061612.
